Test results as given in article PMC11009625, “Antibiotic class with potent in vivo activity targeting lipopolysaccharide synthesis in Gram-negative bacteria” (Proceedings of the National Academy of Sciences of the …, 2024).
In brackets after ≈: the same amount, converted by molar mass.

Columns and labels:
Eco MG1655 ∆tolC (EN243) = assay: MIC, efflux-defective parental strain EN243; type: cell-based, E. coli; conditions: Escherichia coli, MG1655, read-out: MIC EN243
Experimental: Minimum inhibitory concentration (MIC) values were determined according to the Clinical Laboratory Standards Institute guidelines. Frequency of resistance was determined by plating ~5 × 10^8 bacterial cells on agar-solidified media plates containing test compound at concentrations corresponding to four times the measured solid-media MIC of the strains. Colonies were counted after 24 h, restreaked onto media containing the same concentration of compound, and the MIC remeasured against the assayed compound. Genomic DNA from isolated clones was sequenced by paired-end sequencing on an Illumina MiSeq device. Complete experimental details available in SI Appendix. […]
Minimum inhibitory concentration (MIC) determination. Broth microdilution and agar dilution
MIC assays were conducted according to CLSI guidelines (M07-2012). Appropriate inoculation
suspension density was assessed using a Sensititre Nephelometer with a Sensititre 0.5
McFarland Standard. […]

[1] = Plasma protein binding (RED device); type: in vitro ADME; conditions: plasma (50% plasma, 50% isotonic buffer), pH 7.4; human plasma
Experimental: (§1) Thermodynamic solubility was assessed by dissolving 2 to 3 mg of test compound to equilibrium in 100 mM KPO4-buffer, pH 7.4. The metabolic stability assay was performed in the presence of human and mouse liver microsomes by measurement of test compounds disappearance over time (60 min). The plasma protein binding assay, including stability estimation, was performed using the RED devices (Thermo Fisher Scientific) in the presence of human and mouse plasma. All samples from the in vitro ADME studies were quantified by liquid chromatography-triple quadrupole mass spectrometry (LC–MS/MS). The assays were performed as previously described ([36]) and the details are available in SI Appendix. Cytotoxicity was assessed by incubation of test compounds in the presence of HepG2 cells for 72 h as previously described ([37]).
Plasma protein binding and plasma stability in human and animal plasma. Pooled,
anonymized human plasma was provided by Uppsala Academic Hospital and was collected from
two donors (non-smoking) (citric acid). In brief, 0.2 ml of the plasma (50% plasma, 50% isotonic
buffer) test solution (typically 10 μM final compound concentration) was transferred to the
membrane tube in the RED insert (ThermoFisher Scientific). 0.35 ml isotonic phosphate buffer
pH 7.4 was added to the other side of the membrane. The 96-well base plate was then sealed
with an adhesive plastic film (Scotch Pad) to prevent evaporation. The sample was incubated
with rapid rotation (900 rpm) on a Kisker rotational incubator at 37°C for 4 h to achieve
equilibrium. A stability test of the test solution was prepared (to allow detection of drug
degradation), 100 μL of the plasma test solution (in a plastic vial or on a sealed plate) was
incubated at 37°C for 4 h (or as long as the dialysis time). The plasma test solution was frozen
directly after the administration to prevent any degradation. Prior to LC-MS/MS analysis the
plasma and buffer sample were treated with the addition of Methanol (1:3) containing Warfarin
as internal standard to precipitate proteins. The standard curve was created using the plasma
standard. The plate is then sealed, centrifuged and the supernatant is analysed by liquid
chromatography coupled to triple quadrupole mass spectrometry (LC-MS/MS). […]
(§2) Liquid chromatography coupled to triple quadrupole mass spectrometry (LC-MS/MS). The test
(§3) compounds were optimized on a Waters Acquity UPLC XEVO TQ-S micro system (Waters Corp.)
(§4) operating in multiple reaction monitoring (MRM) mode with positive or negative electrospray
(§5) ionization. Compounds were optimized by using the QuanOptimize software (Waters Corp.).
(§6) For chromatographic separation, a C18 BEH 1.7 µm column was used, with a general gradient of
(§7) 1% to 90% of mobile phase B over a total running time of 2 min. Mobile phase A consisted of
(§8) 5% acetonitrile and 0.1% formic acid in purified water, and mobile phase B of 0.1% formic acid
(§9) in 100% acetonitrile. The flow rate was set to 0.5 ml/min and 5 µL of the sample was injected.

[2] = Metabolic stability in human liver microsomes; type: in vitro ADME; conditions: pH 7.4
Experimental: as §1, with “([37]). […]” for “([37]).”
The plate is then sealed, centrifuged and the supernatant is analysed by liquid
chromatography coupled to triple quadrupole mass spectrometry (LC-MS/MS).
Metabolic stability in the presence of human and animal liver microsomes. Metabolic stability
was determined in 0.5 mg/ml human or animal liver microsomes at a compound concentration
of 1 μM in 100 mM KPO4 buffer pH 7.4 in a total incubation volume of 500 μl. The reaction was
initiated by addition of 1 mM NADPH. At various incubation times, i.e. at 0, 5, 10, 20, 40 and 60
min, a sample was withdrawn from the incubation and the reaction was terminated by addition
of cold acetonitrile with warfarin as an internal standard. […]
as §2, §3, §4, §5, §6, §7, §8, §9

| SMILES | MIC (Eco MG1655 ∆tolC (EN243)) [µg/mL] | fraction unbound at 4 h, 10 µM [1] | microsomal CLint at 1 µM [2] [µL/min/mg] |
| --- | --- | --- | --- |
| CC(=O)N1CCc2cc(S(=O)(=O)N3CCN(c4cccc(C(F)(F)F)c4)CC3)ccc21 [AZ1, reference compound] | 0.125 (≈ 0.276 µM) |  |  |
| CN(c1ccc(CNCCN)cc1C(=O)Nc1ccc(S(=O)(=O)N2CCN(c3cc(Cl)cc(Cl)c3)CC2)cc1)S(C)(=O)=O [EBL-3025] |  | 0.001 | 42.2 |
| Cc1cc(C#N)nc(N2CCN(S(=O)(=O)c3ccc(NC(=O)c4ccccc4N(C)S(C)(=O)=O)cc3)CC2)n1 [EBL-3339] |  | 0.0054 | 551 |
| Cc1cc(C#N)nc(N2CCN(S(=O)(=O)c3ccc(NC(=O)c4cc(CNCCCN)ccc4N(C)S(C)(=O)=O)cc3)CC2)n1.Cl.Cl [EBL-3599] |  | 0.02 | < 5 |
| Cc1cc(C#N)nc(N2CCN(S(=O)(=O)c3ccc(NC(=O)c4cc(CN5CC(CN)C5)ccc4N(C)S(C)(=O)=O)cc3)CC2)n1 [EBL-3647] |  | 0.025 | 3.1 |
| CN(c1ccccc1C(=O)Nc1ccc(S(=O)(=O)N2CCCCC2)cc1)S(C)(=O)=O [JEDI-852] | 4 (≈ 8.86 µM) |  |  |
| CN(c1ccccc1C(=O)Nc1ccc(S(=O)(=O)N2CCN(c3cccc(C(F)(F)F)c3)CC2)cc1)S(C)(=O)=O [JEDI-1444] | 0.016 (≈ 0.0268 µM) | 0.001 | 209 |
